Test results reported in US8012929B2, “Peptides directed for diagnosis and treatment of amyloid-associated diseases” (Tel Aviv University Future Technology Development L.P., priority 2002, dated 2011).
pIC50: −log10 of the molar value. Like-named read-outs stand apart in the source and are kept apart here. Square brackets hold non-standard residues; d marks the D form. Peptide text beside a SMILES is read from it. Aib = CC(C)(N)C(=O)O

Legend:
[1] = mouse, in vivo
Protocol: (§1) Animals were treated following a 4 hour fast, with water ad libitum, and fed 2 hours after administration. Thereafter, animals were sacrificed at different time intervals (5 minutes-8 hours; 3 animals in each group, at every time interval were sacrificed by sodium pentobarbital anesthesia followed by exanguination) and blood (plasma), brain, liver, kidney and pancreas were collected and later analyzed. Plasma and brain tissue samples were analyzed by high-performance liquid chromatography with tandem mass spectrometry (LC-MS/MS).
(§2) In case of brain tissue, only AUC0-4 was calculated. All parameters were calculated using the software PK solutions Version 2.0 for Noncompartmental Pharmacokinetics Data analysis (Summit Research Services, Montrose, Colo.).

hERG potassium channel = target: T1, hERG potassium channel (Homo sapiens, UniProt Q12809); experiment: Functional hERG assay (patch clamp); type: cell-based
T1 construct: expressed in transfected cells
T1 sequence (Q12809 whole entry): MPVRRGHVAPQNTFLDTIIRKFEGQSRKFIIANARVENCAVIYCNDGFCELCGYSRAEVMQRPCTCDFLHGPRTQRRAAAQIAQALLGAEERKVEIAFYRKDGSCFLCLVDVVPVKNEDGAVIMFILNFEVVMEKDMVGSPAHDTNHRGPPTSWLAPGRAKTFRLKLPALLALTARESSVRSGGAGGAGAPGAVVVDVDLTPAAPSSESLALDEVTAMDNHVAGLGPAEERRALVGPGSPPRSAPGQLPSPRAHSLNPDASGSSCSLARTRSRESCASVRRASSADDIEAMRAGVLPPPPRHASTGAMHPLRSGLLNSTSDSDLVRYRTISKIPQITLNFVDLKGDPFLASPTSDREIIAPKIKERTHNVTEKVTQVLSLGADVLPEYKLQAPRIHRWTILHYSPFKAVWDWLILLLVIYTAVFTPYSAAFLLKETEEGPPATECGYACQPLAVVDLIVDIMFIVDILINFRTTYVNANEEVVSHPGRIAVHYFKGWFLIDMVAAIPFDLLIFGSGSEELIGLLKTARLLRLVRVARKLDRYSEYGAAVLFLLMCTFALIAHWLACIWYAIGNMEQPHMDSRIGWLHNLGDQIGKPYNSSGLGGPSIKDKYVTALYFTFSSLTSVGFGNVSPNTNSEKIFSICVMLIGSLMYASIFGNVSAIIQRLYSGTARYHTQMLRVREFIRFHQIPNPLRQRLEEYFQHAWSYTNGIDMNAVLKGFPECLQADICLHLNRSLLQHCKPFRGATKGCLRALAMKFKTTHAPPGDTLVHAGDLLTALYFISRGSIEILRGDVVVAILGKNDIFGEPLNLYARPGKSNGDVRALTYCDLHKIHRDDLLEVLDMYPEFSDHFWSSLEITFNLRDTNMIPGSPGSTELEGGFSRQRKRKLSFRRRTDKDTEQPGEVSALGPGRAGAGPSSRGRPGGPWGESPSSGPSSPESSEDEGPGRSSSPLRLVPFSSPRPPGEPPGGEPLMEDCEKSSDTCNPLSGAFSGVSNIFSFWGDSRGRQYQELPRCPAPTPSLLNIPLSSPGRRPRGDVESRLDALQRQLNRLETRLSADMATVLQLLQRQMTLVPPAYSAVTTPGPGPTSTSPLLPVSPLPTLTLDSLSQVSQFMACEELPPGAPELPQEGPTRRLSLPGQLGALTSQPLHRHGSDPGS
Protocol: Functional hERG assay—Compounds were tested in duplicate in a 3-point dose response curve on HEK cells stably expressing the hERG potassium channel (GenBank Accession No. AAD01946). Potassium current was measured using the patch clamp technique on a Molecular Devices Patch Express 7000. hERG channels were activated by 2 second pulses to +20 mV from a holding potential of −80 mV, and K^+ currents were recorded upon repolarization to −50 mV. This voltage-clamp pulse protocol was performed continuously during the experiment (vehicle control, test compound, washout, and positive control additions). An interpulse interval of 15 seconds allowed recovery from any residual inactivation. Compounds were incubated with cells between 3-8 minutes until the current reached a steady state level. After compounds were tested, they were washed out with continuous perfusion for 3 minutes, followed by application of positive control (10 uM Cisparide).

CYP450 1A2 = target: T2, CYP450 1A2 (Homo sapiens, UniProt P05177); experiment: Human CYP450 screen 1A2; type: in vitro ADME
T2 sequence (P05177 1-516): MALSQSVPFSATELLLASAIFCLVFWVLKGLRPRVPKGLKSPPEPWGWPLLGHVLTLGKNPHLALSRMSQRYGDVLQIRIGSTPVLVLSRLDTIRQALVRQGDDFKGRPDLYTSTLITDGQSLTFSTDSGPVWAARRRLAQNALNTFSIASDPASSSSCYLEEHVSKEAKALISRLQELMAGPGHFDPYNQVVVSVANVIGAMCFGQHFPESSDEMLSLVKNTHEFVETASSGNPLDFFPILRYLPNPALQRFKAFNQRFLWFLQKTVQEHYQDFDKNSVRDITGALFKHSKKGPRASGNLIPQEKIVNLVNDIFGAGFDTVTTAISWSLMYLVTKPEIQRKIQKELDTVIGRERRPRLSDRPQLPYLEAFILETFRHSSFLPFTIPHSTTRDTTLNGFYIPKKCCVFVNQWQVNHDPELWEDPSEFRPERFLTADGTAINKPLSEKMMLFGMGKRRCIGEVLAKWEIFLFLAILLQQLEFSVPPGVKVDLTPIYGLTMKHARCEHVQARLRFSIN
From the text: For the metabolic stability assay, Human cytochrom P450 (CYP450) screens were used. The cytochrom P450 isoenzymes, which are located in the intestines, liver, lung, kidney and brain, are involved in important drug interactions. Drug metabolism occurs in two phases—Phase I involves oxidation, reduction, and hydrolysis. Phase II involves synthesis and conjugation. The CYP 450 isoenzymes are involved in Phase I oxidative reactions. CYP 450 interactions generally result from one of two processes—Induction, where a substance stimulates the synthesis of the enzyme and metabolic capacity is increased, and inhibition, where competitive binding at an enzyme's binding site(s) occurs. A drug with a high affinity for an enzyme will slow the metabolism of any low affinity drug. CYP 3A3/4 is the most abundant CYP 450 isoenzyme in humans and is responsible for the metabolism of the widest range of drugs/substances. (CYP450) screens used were 1A2, 2C9, 2C19, 2D6 and 3A4.

[2] = tested on: neuronal primary cell cultures; experiment: Neurotoxicity (5% assay), MTT and Calcein-AM; type: cell-based
Protocol: Neurotoxicity (5% assay)—Neural cells were grown in Poly-D-Lysine coated 96-well plates. Eighty μl medium containing 48.000 cells/well were added to each well plate containing 80 μl T.I. in the appropriate concentrations, or nutrition medium (control). Plates were kept at 37° C., 95% humidity and 5% CO2. Neurons, which begin to extend processes after a few hours in culture, were maintained in the same medium without change or addition of media for 8 days, until the end of the experiments. For Neurotoxicity, the MTT-assay was effected using a plate-reader (570 nm) for determining the culture viability, as described in Example 49. The MTT assay is based on the ability of a dehydrogenase enzyme from an active mitochondiria to produce a dark blue formazan product from the pale yellow MTT substrate, by cleaving the MTT tetrazolium rings. Since in the MTT-assay sometimes interference between the substance/drug applied and the generation of formazane crystals can be seen, it is necessary to introduce a second evaluation system. Therefore, the viability of cultures was determined with the Calcein-AM assay as well, as described in Neri et al., [Clin. Diagn. Lab Immunol. 1131-1135 (2001)], using an automated fluorescence plate-reader (485/535 nm). Calcein AM is a widely used green fluorescent cell marker, which is membrane-permeant and thus can be introduced into cells via incubation. […]

in vivo = details: CD-1, mouse
Protocol: as §1, §2

[3] = inhaled or intranasal, 20 mg/kg

Q: Which “detection in brain tissue (transport through the blood-brain barrier)” value [1] does the source give for `CC(C)(NC(=O)[C@H](N)Cc1c[nH]c2ccccc12)C(=O)O` [D-Trp-Aib] (H-[dW]-[Aib]-OH) here?
A: detected in all the assayed brain tissue samples

Q: And the “exposure of the brain, intranasal compared to oral administration” value [1]?
A: higher exposure of the brain

Q: What about the “Cl (area)/kg” value [1, 3] of the same molecule?
A: 19.1947 mL/min/kg

Q: And the “Vd (area)/kg” value [1, 3]?
A: 2.14474 L/kg

Q: And the “AUC (0-t) (obs area)” value ([1]; iv, 50 mg/kg)?
A: 2173.55

Q: And the AUCextra ([1]; iv, 50 mg/kg)?
A: 0.11%

Q: And the “earliest detection post-dosing (rapidly absorbed)” value ([1]; po)?
A: 15 min

Q: What about the “AUC (0-t) (obs area)” value ([1]; po, 50 mg/kg) of the same molecule?
A: 453.91

Q: And the AUCextra ([1]; po, 50 mg/kg)?
A: 0.24%

Q: What about the “Cl (area)/kg” value ([1]; po, 50 mg/kg) of the same molecule?
A: 20.4857 mL/min/kg

Q: What about the “Vd (area)/kg” value ([1]; po, 50 mg/kg) of the same molecule?
A: 1.90581 L/kg

Q: What about the “effect on potassium channels” value (hERG potassium channel; HEK cells stably expressing hERG) of the same molecule?
A: did not show any effect on potassium channels

Q: And the pIC50 (hERG potassium channel; human, HEK cells stably expressing the hERG potassium channel, read-out: IC50 for potassium current)?
A: < 4.30

Q: And the “activity in CYP450 screen” value (CYP450 1A2)?
A: None of the results met significance criteria

Q: What about the “cytotoxicity towards neuronal primary cell cultures” value ([2]; MTT viability assay and Calcein AM assay) of the same molecule?
A: noncytotoxic

Q: What about the “neuronal viability compared to the untreated control” value ([2]; concentration of up to 150 μM) of the same molecule?
A: did not alter neuronal viability

Q: And the half-life (in vivo)?
A: 1.1 to 1.2 h

Q: What about the bioavailability (in vivo; inhaled or intranasal) of the same molecule?
A: 65.5%

Q: And the AUC(0-inf) (in vivo; [3])?
A: 11400 ng·h/mL

Q: What about the AUC(0-t) (in vivo; [3]) of the same molecule?
A: 10600 ng·h/mL

Q: What about the MRT (in vivo; [3]) of the same molecule?
A: 0.98 h

Q: What about the half-life (in vivo; [3]) of the same molecule?
A: 1.29 h

Q: And the AUC(0-inf) (in vivo; iv, 50 mg/kg)?
A: 40600 ng·h/mL

Q: What about the AUC(0-t) (in vivo; iv, 50 mg/kg) of the same molecule?
A: 40600 ng·h/mL

Q: And the MRT (in vivo; iv, 50 mg/kg)?
A: 0.44 h

Q: What about the Vd (in vivo; iv, 50 mg/kg) of the same molecule?
A: 2.16 L/kg

Q: And the bioavailability (in vivo; iv, 50 mg/kg)?
A: 100%

Q: What about the clearance (in vivo; iv, 50 mg/kg) of the same molecule?
A: 20.5 mL/min/kg

Q: What about the half-life (in vivo; iv, 50 mg/kg) of the same molecule?
A: 1.22 h

Q: And the AUC(0-inf) (in vivo; po, 50 mg/kg)?
A: 15700 ng·h/mL

Q: And the AUC(0-t) (in vivo; po, 50 mg/kg)?
A: 15700 ng·h/mL

Q: And the Cmax (in vivo; po, 50 mg/kg)?
A: 9810 ng/mL

Q: What about the MRT (in vivo; po, 50 mg/kg) of the same molecule?
A: 1.29 h

Q: What about the Tmax (in vivo; po, 50 mg/kg) of the same molecule?
A: 1 h

Q: And the bioavailability (in vivo; po, 50 mg/kg)?
A: 38.7%

Q: What about the half-life (in vivo; po, 50 mg/kg) of the same molecule?
A: 1.07 h
